# Laboratory results reported in ChEMBL document CHEMBL1156829 (Proc Natl Acad Sci U S A, 2008).
# Legend:
# Plasmodium falciparum [1] = assay: NOVARTIS: Inhibition of Plasmodium falciparum 3D7 (drug-susceptible) proliferation in erythrocyte-based infection assay; type: functional, organism-based; conditions: Plasmodium falciparum, 3D7
# Plasmodium falciparum [2] = assay: NOVARTIS: Inhibition of Plasmodium falciparum W2 (drug-resistant) proliferation in erythrocyte-based infection assay; type: functional, organism-based; conditions: Plasmodium falciparum, W2; read-out: EC50
# [3] = NOVARTIS: Cytotoxicity against human hepatocellular carcinoma cell line (Huh7); type: toxicity, cell-based, Huh-7; conditions: Huh7 cells (hepatocellular carcinoma cell line)
structure (smiles),measurement,setting,value
Nc1ccnc2cc(Cl)ccc12,EC50,Plasmodium falciparum [1],415 nM
same,EC50,Plasmodium falciparum [2],57.6 nM
same,CC50,[3],72000 nM
CC(C)C[C@H](NC(=O)N1CCOCC1)C(=O)N[C@H](/C=C/S(=O)(=O)c1ccccc1)CCc1ccccc1,EC50,Plasmodium falciparum [1],210 nM
same,EC50,Plasmodium falciparum [2],37.7 nM
same,CC50,[3],48800 nM
COc1cc(C(=O)NC2CC2)ccc1OC1CCN(CC(c2ccccc2)c2ccccc2)CC1,EC50,Plasmodium falciparum [1],44.4 nM
same,EC50,Plasmodium falciparum [2],18.5 nM
same,CC50,[3],23500 nM
CC1CCC2C(C)C(=O)OC3OC(C)C4CC1C32OO4 (stereo not given),EC50,Plasmodium falciparum [1],19.1 nM
same,EC50,Plasmodium falciparum [2],7.62 nM
same,CC50,[3],> 10000 nM
CCOc1ccc(N(CC)S(=O)(=O)c2cc(Br)cc3c2N(C(C)=O)CC3)cc1,EC50,Plasmodium falciparum [1],125 nM
same,EC50,Plasmodium falciparum [2],76.1 nM
same,CC50,[3],> 100000 nM
C=C[C@H]1CN2CC[C@H]1C[C@H]2[C@H](OC(=O)c1ccc(F)cc1)c1ccnc2ccccc12,EC50,Plasmodium falciparum [1],777 nM
same,EC50,Plasmodium falciparum [2],< 8.08 nM
same,CC50,[3],> 10000 nM
COc1cccc(-c2ccc(O)c(CNC(C)c3cccc4ccccc34)c2)n1 (stereo not given),EC50,Plasmodium falciparum [1],285 nM
same,EC50,Plasmodium falciparum [2],48.4 nM
same,CC50,[3],61200 nM
CCCC(C)C(C(=O)NCc1ccccc1)N1C(=O)c2cc(NC(C)=O)ccc2NC(=O)[C@@H]1c1ccccc1 (stereo not given in full),EC50,Plasmodium falciparum [1],> 1250 nM
same,EC50,Plasmodium falciparum [2],< 7.12 nM
same,CC50,[3],9210 nM
O=S(=O)(NCCCCNc1ccnc2cc(Cl)ccc12)c1ccc2ccccc2c1,EC50,Plasmodium falciparum [1],268 nM
same,EC50,Plasmodium falciparum [2],4.95 nM
same,CC50,[3],6410 nM
Oc1ccc(-c2ccccc2)cc1CN1CCCCCC1,EC50,Plasmodium falciparum [1],242 nM
same,EC50,Plasmodium falciparum [2],53.7 nM
same,CC50,[3],67400 nM
Cc1ccc(-c2c3c(nc4sc(C(=O)Nc5cccc(C)c5)c(N)c24)CCC3)cc1,EC50,Plasmodium falciparum [1],1010 nM
same,EC50,Plasmodium falciparum [2],82.7 nM
same,CC50,[3],> 100000 nM
COc1ccc(C2CC(=O)C3=C(C2)NC(C)=C(C(=O)OC2CCCC2)C3c2ccccc2F)cc1OC (stereo not given),EC50,Plasmodium falciparum [1],40.4 nM
same,EC50,Plasmodium falciparum [2],12 nM
same,CC50,[3],14900 nM
Cc1cccc[n+]1CCCCCCCCCC[n+]1ccccc1C,EC50,Plasmodium falciparum [1],102 nM
same,EC50,Plasmodium falciparum [2],81.8 nM
same,CC50,[3],> 100000 nM
O=[N+]([O-])c1ccc(N2CCCN(C(=S)Nc3ccccc3)CC2)nc1,EC50,Plasmodium falciparum [1],91.5 nM
same,EC50,Plasmodium falciparum [2],80.1 nM
same,CC50,[3],> 100000 nM
COc1cncc(-c2cncc(-c3ccc(Oc4ccccc4)cc3)n2)c1,EC50,Plasmodium falciparum [1],43.9 nM
same,EC50,Plasmodium falciparum [2],79.8 nM
same,CC50,[3],> 100000 nM
CC(C)CCN(CCC(C)C)CC(O)Cn1c2ccc(Cl)cc2c2cc(Cl)ccc21 (stereo not given),EC50,Plasmodium falciparum [1],292 nM
same,EC50,Plasmodium falciparum [2],82.8 nM
same,CC50,[3],> 100000 nM
O=C(NC1CCN(CC(O)CN(Cc2ccccc2)S(=O)(=O)c2ccccc2)C1)c1cccc2ccccc12 (stereo not given),EC50,Plasmodium falciparum [1],82.5 nM
same,EC50,Plasmodium falciparum [2],< 8.3 nM
same,CC50,[3],> 10000 nM
Cc1ccn2c(NC(C)(C)CC(C)(C)C)c(-c3ccccc3OC(=O)C3CCCC3)nc2c1,EC50,Plasmodium falciparum [1],1010 nM
same,EC50,Plasmodium falciparum [2],< 8.29 nM
same,CC50,[3],> 10000 nM
COc1ccc(C2CC(=O)C3=C(C2)NC(C)=C(C(=O)OC2CCCC2)C3c2ccc(Cl)cc2)cc1OC (stereo not given),EC50,Plasmodium falciparum [1],29 nM
same,EC50,Plasmodium falciparum [2],16.7 nM
same,CC50,[3],21600 nM
CC[n+]1c(/C=C/c2ccc(Cl)cc2)ccc2ccccc21,EC50,Plasmodium falciparum [1],60.8 nM
same,EC50,Plasmodium falciparum [2],< 8.16 nM
same,CC50,[3],> 10000 nM
C=CC1CN2CCC1CC2[C@H](O)c1ccnc2ccc(OC)cc12 (stereo not given in full),EC50,Plasmodium falciparum [1],11.2 nM
same,EC50,Plasmodium falciparum [2],45.3 nM
same,CC50,[3],56500 nM
CO[C@H]1[C@H](C)[C@@H]([C@H]2CC[C@H]([C@@H]3CC[C@H]([C@@]4(C)O[C@]5(O[C@H](C[C@@H]6O[C@](O)([C@@H](C)C(=O)O)[C@@H](C)[C@H](O[C@H]7CC[C@H](OC)[C@@H](C)O7)[C@@]6(C)OC)C[C@@H](OC)[C@H]5C)[C@H](C)[C@H]4OC)O3)O2)O[C@](C)(O)[C@@H]1C,EC50,Plasmodium falciparum [1],13.3 nM
same,EC50,Plasmodium falciparum [2],1.93 nM
same,CC50,[3],2420 nM
C[C@H](Nc1cncc(-c2ccc(Cl)cc2)n1)c1ccccc1,EC50,Plasmodium falciparum [1],53.7 nM
same,EC50,Plasmodium falciparum [2],56.2 nM
same,CC50,[3],71000 nM
CC(C)NC(=O)N1CCN(C(=O)C(Cc2c[nH]c3ccccc23)NC(=O)Nc2cccc(Cl)c2Cl)CC1C (stereo not given),EC50,Plasmodium falciparum [1],27.2 nM
same,EC50,Plasmodium falciparum [2],43.9 nM
same,CC50,[3],57700 nM
CCOC(=O)C1=C(C)NC(=Cc2cc(C)n(-c3ccc(C)cc3C)c2C)C1=O,EC50,Plasmodium falciparum [1],64.4 nM
same,EC50,Plasmodium falciparum [2],78.5 nM
same,CC50,[3],> 100000 nM
